ChEMBL document CHEMBL5053512, “Discovery and Preclinical Pharmacology of an Oral Bromodomain and Extra-Terminal (BET) Inhibitor Using Scaffold-Hopping and Structure-Guided Drug Design” (J Med Chem, 2021)

Assays:
[1] = biological target: Bromodomain-containing protein 4 (Homo sapiens, UniProt O60885); experiment: Inhibition of human BRD4 (1 to 477 residues) measured after 60 mins by TR-FRET assay
[2] = Antitumour activity against human JJN3R cells measured after 72 hrs by MTS assay; format: functional, cell-based; conditions: JJN-3R
[3] = Metabolic stability in mouse liver microsomes assessed as parent compound remaining at 0.5 uM after 10 mins; format: ADME, Microsome; conditions: read-out: Stability
[4] = Cmax in mouse at 30 mg/kg, po; format: ADME, organism-based; design: dose 30 mg/kg, route po; conditions: in vivo
[5] = AUC (0 to 7 hrs) in mouse at 30 mg/kg, po; format: ADME, organism-based; design: time < 7 hr, dose 30 mg/kg, route po; conditions: in vivo
[6] = Efflux ratio of permeability in human Caco-2 cells; format: ADME, cell-based
[7] = biological target: Cytochrome P450 2C9 (Homo sapiens, UniProt P11712); experiment: Inhibition of CYP2C9 (unknown origin); format: ADME
Cytochrome P450 2C9, sequence (P11712 whole entry): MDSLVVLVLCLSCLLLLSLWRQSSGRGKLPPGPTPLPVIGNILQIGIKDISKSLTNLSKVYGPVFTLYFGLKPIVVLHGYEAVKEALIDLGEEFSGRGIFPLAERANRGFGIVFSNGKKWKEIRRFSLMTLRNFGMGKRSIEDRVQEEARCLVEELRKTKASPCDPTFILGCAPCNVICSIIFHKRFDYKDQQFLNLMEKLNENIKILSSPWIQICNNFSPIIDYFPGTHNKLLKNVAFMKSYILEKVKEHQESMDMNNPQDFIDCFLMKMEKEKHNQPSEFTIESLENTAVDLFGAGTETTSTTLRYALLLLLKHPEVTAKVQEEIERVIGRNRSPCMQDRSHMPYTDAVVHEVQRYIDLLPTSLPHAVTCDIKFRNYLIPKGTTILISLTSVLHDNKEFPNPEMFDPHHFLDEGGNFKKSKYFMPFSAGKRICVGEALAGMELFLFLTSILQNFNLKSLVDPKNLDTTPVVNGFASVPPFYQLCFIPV

[8] = biological target: Cytochrome P450 2C19 (Homo sapiens, UniProt P33261); experiment: Inhibition of CYP2C19 (unknown origin); format: ADME
Cytochrome P450 2C19, sequence (P33261 whole entry): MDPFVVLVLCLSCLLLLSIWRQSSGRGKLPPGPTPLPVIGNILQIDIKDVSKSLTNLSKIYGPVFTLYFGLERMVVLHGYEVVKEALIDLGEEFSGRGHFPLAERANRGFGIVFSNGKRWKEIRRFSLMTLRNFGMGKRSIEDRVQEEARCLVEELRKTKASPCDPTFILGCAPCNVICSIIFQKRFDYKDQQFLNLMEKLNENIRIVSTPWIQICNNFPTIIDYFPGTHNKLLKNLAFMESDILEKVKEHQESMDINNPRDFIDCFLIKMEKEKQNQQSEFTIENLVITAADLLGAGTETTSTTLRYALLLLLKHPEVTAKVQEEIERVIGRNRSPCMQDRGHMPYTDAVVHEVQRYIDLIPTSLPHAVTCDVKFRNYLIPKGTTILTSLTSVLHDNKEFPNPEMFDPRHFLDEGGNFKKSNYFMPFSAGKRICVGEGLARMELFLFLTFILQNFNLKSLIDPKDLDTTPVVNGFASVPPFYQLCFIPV

[9] = biological target: Cytochrome P450 2D6 (Homo sapiens, UniProt P10635); experiment: Inhibition of CYP2D6 (unknown origin); format: ADME
Cytochrome P450 2D6, sequence (P10635 whole entry): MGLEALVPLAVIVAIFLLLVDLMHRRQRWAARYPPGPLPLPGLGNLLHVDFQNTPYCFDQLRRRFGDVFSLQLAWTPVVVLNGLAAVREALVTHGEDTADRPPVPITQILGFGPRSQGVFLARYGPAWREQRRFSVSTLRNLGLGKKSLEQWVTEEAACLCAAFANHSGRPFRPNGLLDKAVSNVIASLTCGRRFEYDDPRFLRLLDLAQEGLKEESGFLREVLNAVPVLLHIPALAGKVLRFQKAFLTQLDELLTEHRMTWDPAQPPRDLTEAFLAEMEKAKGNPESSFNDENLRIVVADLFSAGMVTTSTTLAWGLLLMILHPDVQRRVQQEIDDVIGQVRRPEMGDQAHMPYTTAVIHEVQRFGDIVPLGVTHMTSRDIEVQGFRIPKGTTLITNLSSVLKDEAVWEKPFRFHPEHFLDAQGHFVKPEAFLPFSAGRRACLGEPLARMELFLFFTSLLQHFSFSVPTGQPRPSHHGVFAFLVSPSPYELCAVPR

[10] = Oral bioavailability in rat at 5 mg/kg; format: ADME, organism-based; conditions: in vivo
[11] = Oral bioavailability in dog at 5 mg/kg; format: ADME, organism-based, Canis lupus familiaris; conditions: in vivo
[12] = Elimination half life in mouse at 1.75 mg/kg, iv; format: ADME, organism-based; conditions: in vivo, read-out: beta t1/2 (converted)
[13] = Elimination half life in rat at 1 mg/kg, iv; format: ADME, organism-based; conditions: in vivo, read-out: beta t1/2 (converted)
[14] = Total plasma clearance in rat at 1 mg/kg, iv; format: ADME, organism-based
[15] = Total plasma clearance in dog at 0.1 mg/kg, iv; format: ADME, organism-based, Canis lupus familiaris
[16] = Total plasma clearance in monkey at 0.1 mg/kg, iv; format: ADME, organism-based, Macaca mulatta; conditions: rhesus monkey
[17] = Volume of distribution at steady state in rat at 1 mg/kg, iv; format: ADME, organism-based; conditions: in vivo, read-out: Vdss
[18] = Volume of distribution at steady state in monkey at 0.1 mg/kg, iv; format: ADME, organism-based, Macaca mulatta; conditions: rhesus monkey, in vivo, read-out: Vdss
[19] = tested on: DMS-53; experiment: Anticancer activity against human DMS-53 cells; format: functional, cell-based
[20] = tested on: DMS-114; experiment: Anticancer activity against human DMS-114 cells; format: functional, cell-based
[21] = tested on: HCC44; experiment: Anticancer activity against human HCC44 cells; format: functional, cell-based
[22] = tested on: HCC95; experiment: Anticancer activity against human HCC95 cells; format: functional, cell-based
[23] = tested on: NCI-H2170; experiment: Anticancer activity against human NCI-H2170 cells; format: functional, cell-based
[24] = Anticancer activity against human HCC15 cells; format: functional, cell-based
[25] = tested on: NCI-H647; experiment: Anticancer activity against human NCI-H647 cells; format: functional, cell-based
[26] = tested on: A549; experiment: Anticancer activity against human A549 cells; format: functional, cell-based
[27] = Anticancer activity against human HCC1588 cells; format: functional, cell-based
[28] = tested on: NCI-H1048; experiment: Anticancer activity against human NCI-H1048 cells; format: functional, cell-based
[29] = tested on: NCI-H1355; experiment: Anticancer activity against human NCI-H1355 cells; format: functional, cell-based
[30] = tested on: NCI-H1793; experiment: Anticancer activity against human NCI-H1793 cells; format: functional, cell-based
[31] = tested on: SW900; experiment: Anticancer activity against human SW900 cells; format: functional, cell-based
[32] = Anticancer activity against human JJN3R cells; format: functional, cell-based; conditions: JJN-3R
[33] = tested on: MOLM-13; experiment: Anticancer activity against human MOLM-13 cells; format: functional, cell-based
[34] = Antitumour activity against human LG0787F cells xenografted in NSG mouse assessed as tumour growth inhibition at 1 mg/kg/day, po qd; format: functional; conditions: read-out: TGI
[35] = Cmax in human LG0787F cells xenografted in NSG mouse at 1 mg/kg/day, po bid; format: ADME, organism-based; design: dose 1 mg/kg/day, route po; conditions: in vivo
[36] = Cmax in human LG0787F cells xenografted in NSG mouse at 1 mg/kg/day, po qd; format: ADME, organism-based; design: dose 1 mg/kg/day, route po; conditions: in vivo
[37] = AUC in human LG0787F cells xenografted in NSG mouse at 0.25 mg/kg/day, po bid; format: ADME, organism-based; design: dose 0.25 mg/kg/day, route po; conditions: in vivo
[38] = Antitumour activity against human LG0787F cells xenografted in po dosed NSG mouse assessed as minimum effective concentration measured after 12 hrs; format: functional; conditions: dose 0.25 mg/kg/day
[39] = Drug concentration at steady state in human LG0787F cells xenografted in NSG mouse infused continuously over 6 days using Alzet pump; format: ADME; conditions: iv, 144 h, time 6 day
[40] = Antitumour activity against human LG0787F cells xenografted in NSG mouse assessed as tumour growth inhibition at 0.5 mg/kg/day infused continuously over 6 days using Alzet pump; format: functional; conditions: 144 h, time 6 day, read-out: TGI
[41] = Drug concentration at steady state in human LG0787F cells xenografted in NSG mouse at 0.5 mg/kg/day infused continuously over 6 days using Alzet pump; format: ADME, organism-based; conditions: in vivo, 144 h, time 6 day
[42] = Antitumour activity against human LG0787F cells xenografted in NSG mouse at 1 mg/kg/day infused continuously over 6 days using Alzet pump; format: functional; conditions: 144 h, time 6 day, read-out: TGI
[43] = Antitumour activity against patient-derived human PAT81 cells xenografted in mouse model at 1.6 mg/kg, po bid, 5 days on and 2 days off for 2 weeks; format: functional; conditions: PAT81, 120 h, time 5 day, read-out: TGI
[44] = Antitumour activity against patient-derived human PAT014 cells xenografted in mouse model at 1.6 mg/kg, po bid, 5 days on and 2 days off for 2 weeks; format: functional; conditions: PAT014, 120 h, time 5 day, read-out: TGI
[45] = Antitumour activity against patient-derived human PAT129 cells xenografted in mouse model at 1.6 mg/kg, po bid, 5 days on and 2 days off for 2 weeks; format: functional; conditions: PAT129, 120 h, time 5 day, read-out: TGI
[46] = Antitumour activity against patient-derived human PAT150 cells xenografted in mouse model at 1.6 mg/kg, po bid, 5 days on and 2 days off for 2 weeks; format: functional; conditions: PAT150, 120 h, time 5 day, read-out: TGI
[47] = Antitumour activity against patient-derived human PAT140 cells xenografted in mouse model at 1.6 mg/kg, po bid, 5 days on and 2 days off for 2 weeks; format: functional; conditions: PAT140, 120 h, time 5 day, read-out: TGI
[48] = Antitumour activity against patient-derived human BR0869F cells xenografted in mouse model at 1.6 mg/kg, po bid, 5 days on and 2 days off for 2 weeks; format: functional; conditions: 120 h, time 5 day, read-out: TGI
[49] = Antitumour activity against patient-derived human BR0851F cells xenografted in mouse model at 1.6 mg/kg, po bid, 5 days on and 2 days off for 2 weeks; format: functional; conditions: 120 h, time 5 day, read-out: TGI
[50] = Antitumour activity against patient-derived human PAT78 cells xenografted in mouse model at 1.6 mg/kg, po bid, 5 days on and 2 days off for 2 weeks; format: functional; conditions: PAT78, 120 h, time 5 day, read-out: TGI
[51] = Antitumour activity against patient-derived human PAT157 cells xenografted in mouse model at 1.6 mg/kg, po bid, 5 days on and 2 days off for 2 weeks; format: functional; conditions: PAT157, 120 h, time 5 day, read-out: TGI
[52] = biological target: CREB-binding protein (Homo sapiens) (UniProt Q92793)
CREB-binding protein (Homo sapiens), sequence (Q92793 2-2442 limits assumed): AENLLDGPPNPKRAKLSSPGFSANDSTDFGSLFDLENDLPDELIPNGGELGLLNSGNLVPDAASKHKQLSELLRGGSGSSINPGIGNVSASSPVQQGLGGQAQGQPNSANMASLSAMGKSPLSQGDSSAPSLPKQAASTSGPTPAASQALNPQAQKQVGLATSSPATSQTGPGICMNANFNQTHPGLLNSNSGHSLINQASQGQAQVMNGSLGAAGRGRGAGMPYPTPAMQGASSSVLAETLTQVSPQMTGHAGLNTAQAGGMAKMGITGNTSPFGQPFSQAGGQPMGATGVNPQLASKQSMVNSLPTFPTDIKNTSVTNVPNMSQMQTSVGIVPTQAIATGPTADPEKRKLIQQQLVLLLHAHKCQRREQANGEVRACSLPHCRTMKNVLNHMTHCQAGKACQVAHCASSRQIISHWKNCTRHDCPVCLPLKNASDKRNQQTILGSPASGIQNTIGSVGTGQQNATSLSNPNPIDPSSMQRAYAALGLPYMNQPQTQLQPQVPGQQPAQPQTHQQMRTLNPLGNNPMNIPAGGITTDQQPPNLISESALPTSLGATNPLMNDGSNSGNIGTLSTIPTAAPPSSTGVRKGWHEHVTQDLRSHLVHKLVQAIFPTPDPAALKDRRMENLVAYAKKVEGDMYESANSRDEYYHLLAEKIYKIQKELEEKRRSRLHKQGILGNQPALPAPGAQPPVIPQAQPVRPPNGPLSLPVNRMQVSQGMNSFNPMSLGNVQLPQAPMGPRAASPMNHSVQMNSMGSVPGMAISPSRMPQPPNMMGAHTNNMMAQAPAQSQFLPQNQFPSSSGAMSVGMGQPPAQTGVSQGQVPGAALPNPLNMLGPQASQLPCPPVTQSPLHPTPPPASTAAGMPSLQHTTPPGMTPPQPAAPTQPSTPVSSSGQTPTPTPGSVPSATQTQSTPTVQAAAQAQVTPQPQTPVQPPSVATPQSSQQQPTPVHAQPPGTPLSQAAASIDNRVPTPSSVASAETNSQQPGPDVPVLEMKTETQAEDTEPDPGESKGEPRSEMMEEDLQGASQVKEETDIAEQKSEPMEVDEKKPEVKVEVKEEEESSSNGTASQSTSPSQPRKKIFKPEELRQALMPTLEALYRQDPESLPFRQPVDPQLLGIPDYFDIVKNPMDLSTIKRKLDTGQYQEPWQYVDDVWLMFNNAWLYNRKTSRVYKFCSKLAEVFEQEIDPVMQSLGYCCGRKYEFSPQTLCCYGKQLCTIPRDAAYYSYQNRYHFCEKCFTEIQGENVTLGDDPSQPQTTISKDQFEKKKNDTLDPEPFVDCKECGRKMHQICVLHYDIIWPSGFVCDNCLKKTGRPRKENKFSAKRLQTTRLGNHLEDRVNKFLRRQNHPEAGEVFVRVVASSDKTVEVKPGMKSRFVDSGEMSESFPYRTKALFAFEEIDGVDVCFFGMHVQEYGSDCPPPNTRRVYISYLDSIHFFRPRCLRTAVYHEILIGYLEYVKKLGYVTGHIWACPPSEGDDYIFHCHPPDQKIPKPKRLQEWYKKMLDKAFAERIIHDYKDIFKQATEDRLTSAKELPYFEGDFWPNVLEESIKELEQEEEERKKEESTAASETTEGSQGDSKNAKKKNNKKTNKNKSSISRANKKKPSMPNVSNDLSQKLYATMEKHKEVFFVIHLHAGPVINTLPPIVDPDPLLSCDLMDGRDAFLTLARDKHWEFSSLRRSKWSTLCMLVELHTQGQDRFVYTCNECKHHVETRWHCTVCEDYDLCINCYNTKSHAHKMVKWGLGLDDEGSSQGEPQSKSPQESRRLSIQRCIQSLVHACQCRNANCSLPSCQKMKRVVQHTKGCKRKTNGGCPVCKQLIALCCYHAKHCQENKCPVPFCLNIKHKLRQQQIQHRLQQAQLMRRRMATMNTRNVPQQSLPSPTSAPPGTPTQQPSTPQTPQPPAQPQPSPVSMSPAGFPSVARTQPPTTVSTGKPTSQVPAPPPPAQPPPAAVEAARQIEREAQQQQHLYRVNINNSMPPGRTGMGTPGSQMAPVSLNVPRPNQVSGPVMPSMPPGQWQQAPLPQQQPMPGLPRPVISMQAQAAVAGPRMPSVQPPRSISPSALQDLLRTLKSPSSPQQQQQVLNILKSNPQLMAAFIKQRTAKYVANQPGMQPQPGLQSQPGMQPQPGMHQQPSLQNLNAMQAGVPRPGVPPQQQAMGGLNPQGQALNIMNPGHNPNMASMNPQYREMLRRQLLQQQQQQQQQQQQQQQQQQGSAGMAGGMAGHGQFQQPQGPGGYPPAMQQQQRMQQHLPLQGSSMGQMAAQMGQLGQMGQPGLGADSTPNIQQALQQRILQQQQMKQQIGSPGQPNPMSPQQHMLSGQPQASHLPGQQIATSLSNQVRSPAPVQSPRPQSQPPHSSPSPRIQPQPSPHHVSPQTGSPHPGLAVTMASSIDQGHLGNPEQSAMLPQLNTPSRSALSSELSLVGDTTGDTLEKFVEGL
Description: Binding affinity to CREBBP (unknown origin) assessed as change in melting temperature of protein

Structure (SMILES): Cc1nnn(C)c1-c1cnc2c3ccc(C(C)(C)O)cc3n([C@H](c3ccccc3)C3CCOCC3)c2c1 [EZOBRESIB]
- IC50 [1]: 1.1 nM
- IC50 [2]: 3.6 nM
- remaining at 10 min, 0.5 µM [3]: 66%
- Cmax [4]: 11.9 µM
- AUC(0-t) at 7 h [5]: 49.6 µM·h
- efflux ratio [6]: 2.6
- IC50 [7]: 11.8 µM
- IC50 [8]: 5.6 µM
- IC50 [9]: > 20 µM
- bioavailability [10]: 47%
- bioavailability [11]: 59%
- half-life [12]: 108 min
- half-life [13]: 252 min
- clearance [14]: 41 mL/min/kg
- clearance [15]: 15 mL/min/kg
- clearance [16]: 32 mL/min/kg
- Vd [17]: 4.3 L/kg
- Vd [18]: 4.2 L/kg
- IC50 [19]: 0.29 nM
- IC50 [20]: 0.32 nM
- IC50 [21]: 2.7 nM
- IC50 [22]: 8.1 nM
- IC50 [23]: 91 nM
- IC50 [24]: 365 nM
- IC50 [25]: 441 nM
- IC50 [26]: > 500 nM
- IC50 [27]: > 500 nM
- IC50 [28]: > 500 nM
- IC50 [29]: > 500 nM
- IC50 [30]: > 500 nM
- IC50 [31]: > 500 nM
- IC50 [32]: 0.7 nM
- IC50 [33]: 1.7 nM
- inhibition in vivo at 1 mg/kg/day [34]: 50%
- Cmax [35]: 40 nM
- Cmax [36]: 150 nM
- AUC [37]: 0.3 µM·h
- MEC [38]: 10 nM
- Css [39]: 17 nM
- inhibition in vivo at 0.5 mg/kg/day [40]: 62%
- Css [41]: 10 nM
- inhibition in vivo at 1 mg/kg/day [42]: 78%
- inhibition in vivo at 1.6 mg/kg [43]: 112%
- inhibition in vivo at 1.6 mg/kg [44]: 70%
- inhibition in vivo at 1.6 mg/kg [45]: 65%
- inhibition in vivo at 1.6 mg/kg [46]: 62%
- inhibition in vivo at 1.6 mg/kg [47]: 59%
- inhibition in vivo at 1.6 mg/kg [48]: 56%
- inhibition in vivo at 1.6 mg/kg [49]: 49%
- inhibition in vivo at 1.6 mg/kg [50]: 47%
- inhibition in vivo at 1.6 mg/kg [51]: 23%
- ΔTm [52]: 5.6 °C
